Assay results reported in patent US20080131432A1, “Method of treating the chemotoxic effects of chemotherapeutic drugs on brain tissue” (University of Kentucky Research Foundation, priority 2005, published 2008).
Entries after “also recorded” stand apart in the source; their conditions may differ. Where a name gives a salt, the structure may show the parent alone.

Experiments:
p53 and Bcl-xL complex = test: Co-immunoprecipitation of p53 with Bcl-xL in brain mitochondria; format: in vivo, mouse; settings: after ADR, vs saline control; hydrochloride
Description: Isolated mitochondrial protein (500 μg) was resuspended in 500 μL RIPA buffer (9.1 mM Na2HPO4, 1.7 mM NaH2PO4, 150 mM NaCl, 0.5% sodium deoxycholate, 1% v/v Nonidet P40, 0.1% sodium dodecyl sulfate, pH 7.2). Protease inhibitors (0.1 mg PMSF and 1 μg aprotinin per mL RIPA) were added at the time of use followed by incubation with 5 μg/mL of mouse p53 antibody (Ab-11, Oncogene) at 4° C. overnight. Protein A/G-Agarose (50 μL) was added to the reaction mixture with the antibody. Immunocomplexes were collected by centrifugation at 1,000×g at 4° C. for 5 minutes, then washed four times with RIPA buffer. Immunoprecipitated samples were recovered by resuspending in 2×sample loading buffer, and p53 or Bcl-xL (Santa Cruz Biotechnology, Santa Cruz, Calif.) proteins were detected by Western blot. Immunoreactivity was evaluated on immunoblots by densitrometric analysis using a Bio-RAD densitometer (Bio-RAD Laboratory, Inc, Hercules, Calif., USA).

iNOS mRNA = iNOS mRNA expression in brain tissues (RT-PCR); format: in vivo, mouse; settings: wild-type mice, 3 hours after treatment, vs saline controls
Description: At 3 hours after treatment, mice were anesthetized and perfused via cardiac puncture with 0.1 M PBS, pH 7.4. The MRNA was isolated using the Micro-FastTrack 2.0 Kit (Invitrogen, Groningen, Netherlands) according to the manufacturer's instructions. The purified MRNA (5 μg) was subjected to reverse-transcription into first strand cDNA in each 20 μL of reaction mixture using the SuperScript III First-Strand Synthesis System for RT-PCR (Invitrogen) according to the manufacturer's instruction. A 25 μL PCR reaction contained 5 μL first strand cDNA, 0.1 U Taq DNA polymerase (Invitrogen), 10 mM 10×PCR buffer, 1.5 mM MgCl2, 2.5 mM dNTP and 10 pmol of each specific primer. PCR samples were subjected to the following conditions: 35 cycles for iNOS (94° C.: 1 minute; 65° C.: 1 minute; 72° C.: 1 minute), 32 cycles for β-actin (94° C.: […]; 55° C.: 30 s; 72° C.: 10 minutes), on a thermocycle (Perkin-Elmer). The primers with the target gene sequences were synthesized by Invitrogen. The primer sequence iNOS was 5′-CTGATGGTCAAGATCCAG-A-GGTCT-3′ (forward) and 5′-[…]-CTCT-3′(reverse), and the primer for β-actin was 5′-TGTTAC-CAACTGGGACGACA-3′ (forward) and 5′-CTGGGTCATCTT-TTCACCGT-3′ (reverse). After amplification, PCR products were subjected to 1% agarose gel electrophoresis, and visualized by ethidium bromide staining. The relative density of bands was analyzed under ultraviolet light (Bio-Rad). Experiments were repeated three times for reproducibility.

[1] = test system: mitochondrial respiration complex II; test: Brain mitochondrial respiration, complex II (succinate); format: in vivo, mouse; settings: succinate as substrate, after ADR
Description: Mice were perfused via cardiac puncture with cold mitochondrial isolation buffer, the brain promptly removed, the cerebellum dissected away, and mitochondria immediately isolated from the freshly brain by a modification of the method described by Mattiazzi et al. (2002). Brain mitochondria were isolated in cold mitochondrial isolation buffer, containing 0.07 M sucrose, 0.22 M mannitol, 20 mM HEPES, 1 mM EGTA, and 1% bovine serum albumin, pH 7.2. Tissues were homogenized with a Dounce homogenizer and centrifuged at 1,500×g at 4° C. for 5 minutes before transferring the supernatant. The pellets were resuspended and centrifuged at 1,500×g at 4° C. for 5 minutes. […] Protein concentration of isolated mitochondria was determined by the Bradford assay (Bradford, 1976). […]
Mitochondrial respiration was determined using Clark-type polarographic oxygen sensors (Hansatech Instruments, Kings Lynn, Norfolk, UK) to measure the rate of oxygen consumption. […] Oxygen consumption was measured with either pyruvate (10 mM) plus malate (10 mM) or succinate (10 mM) as substrates for respiration from complex I or complex II in the absence of exogenous ADP (state II) and after addition of 300 mM ADP (state III respiration). […] Respiration control ratios (RCR) were calculated as the ratios of state III and state II respiration as described previously by Estabrook (1967). […]

caspase 3 = test: Caspase 3 activity in brain tissues; format: in vivo, mouse; settings: 3 and 72 hours after 20 mg/kg ADR; hydrochloride
[2] = in vivo; cited from earlier work
cytochrome c = test: Cytochrome c release from mitochondria to cytosol (Western blot); format: in vivo, mouse; settings: brain tissue 3 hours after ADR
Description: Western blot analyses of cytochrome c and succinate dehydrogenase or β-actin were determined in mitochondrial or cytosolic fractions isolated from brain tissues 3 hours after mice were treated with ADR, and anti-TNF antibody immediately followed by ADR, and anti-TNF antibody, IgG, or saline as controls. Cytochrome c was decreased in mitochondria (*P<0.01) but increased cytosol after treatment with ADR or IgG followed by ADR. Succinate dehydrogenase or β-actin were used to normalize for protein loading. The Western blots shown a re a representative set of data of n=3 separate sets from individual animals. Quantification of all the data

3-nitrotyrosine = test: Nitrotyrosine-adducted proteins in isolated brain mitochondria (slot blot); format: in vivo, mouse; settings: 3 hours after ADR 20 mg/kg, hydrochloride
Description: 3-Nitrotyrosine levels, a peroxynitrite reaction product marker, were determined as described previously (Lauderback et al. 2001). Briefly, 5 μg isolated mitochondrial proteins were incubated with Laemmli sample buffer (0.125 M Trisma base, pH 6.8, 4% SDS, 20% glycerol) for 20 minutes, and then 250 ng protein were blotted onto the nitrocellulose membrane using a slot-blot apparatus. The membrane was rinsed with TBST buffer, blocked by incubation in the presence of 5% BSA, followed by incubation with rabbit polyclonal anti-nitrotyrosine antibody as primary antibody for 1 h. The membranes were washed with TBST buffer and further incubated with goat anti-rabbit horseradish peroxidase-conjugated secondary antibody for 1 h. After incubation with secondary antibody, the membrane was washed twice with TBST and once in TBS (TBS without 0.05% Tween-20). Immunoreactivities of the protein bands were detected by ECL (Amersham Phamacia Biotech) as described by the manufacturer. Blots were scanned with Adobe Photoshop and quantified by the densitometry method (Bio-Rad).

[3] = Localization of ADR in brain tissue (inverted fluorescence microscope); format: in vivo; settings: mouse brain 3 hours after 20 mg/kg ADR i.p.; hydrochloride
Description: Eight-week-old male B6C3 mice (25-30 g) were kept under standard conditions. The mice were injected in a single intraperitoneal (i.p.) dose of 20 mg/kg adriamycin (Doxorubicin hydrochloride, […] Sicor Phamaceuticals, Inc., Irvine, Calif.), or the same volume of saline as control for 3 hours. […] Controls consisted of anti-TNF α antibody alone, or saline in the same total volume. All results were obtained from at least three separate experiments. Mice were euthanized by the i.p. injection of 65 mg/kg of nembutal (Sodium pentobarbital, Abbott Laboratories, North Chicago, Ill.), and were perfused via cardiac puncture initially with 0.1 M phosphate buffered saline (PBS), pH 7.4, and subsequent fixation with 4% paraformaldehyde. […] The sections were prepared for immunohistochemistry and detection of ADR. ADR in brain tissue slices was directly visualized using an inverted fluorescence microscope, FIG. 1 (excitation filter 550 nm, and barrier filter 590 nm). Photomicrographs were taken with an Olympus MagnaFire digital camera (Olympus, America, Melville, N.Y.).

Brain mitochondrial respiration complex II [1]: no effect
Cytochrome c in cytosolic fraction (cytochrome c): increased
Cytochrome c in mitochondrial fraction (cytochrome c): decreased
Tyrosine-nitrated proteins in brain mitochondria (3-nitrotyrosine; iNOSKO mice): no difference with controls
SMILES: COc1cccc2c1C(=O)c1c(O)c3c(c(O)c1C2=O)C[C@@](O)(C(=O)CO)C[C@@H]3O[C@H]1C[C@H](N)[C@H](O)[C@H](C)O1 [ADR, Doxorubicin hydrochloride]
p53 and Bcl-xL complex in brain mitochondria (Bcl-xL bands after anti-p53 immunoprecipitation) (p53 and Bcl-xL complex): specific increases of p53 and Bcl-xL; also recorded: increased at 3 hours
iNOS mRNA levels in brain tissues (iNOS mRNA): significantly increased
Caspase 3 activity in brain tissues (caspase 3): significantly increased; also recorded: increased at 72 hours compared with 3 hours
Crossing of the blood brain barrier [2]: does not cross the blood brain barrier
Tyrosine-nitrated proteins in brain mitochondria (3-nitrotyrosine; wild-type mice): significantly increased protein nitration
ADR orange-red fluorescence in areas outside the blood brain barrier (choroid plexus) [3]: observed in several areas outside the blood brain barrier, including the choroid plexus; also recorded: apparent in the choroid plexus
ADR orange-red fluorescence in cortex and hippocampus [3]: not observed in cortex and hippocampus; also recorded: not detected
